Assay results as given in patent US12557815B2, “Herbicide combinations comprising glufosinate and pyraflufen-ethyl” (BASF SE, priority 2020, dated 2026).

Test system: Kochia (Bassia scoparia)
Assay: Greenhouse post emergence treatment, visual herbicidal control on a scale from 0 to 100
Assay type: in vivo
Text: Synergism can be described as an interaction where the combined effect of two or more compounds is greater than the sum of the individual effects of each of the compounds. The presence of a synergistic effect in terms of percent control, between two mixing partners (X and Y) can be calculated using the Colby equation (Colby, S. R., 1967, Calculating Synergistic and Antagonistic Responses in Herbicide Combinations, Weeds, 15, 21-22):
When the observed combined control effect is greater than the expected (calculated) combined control effect (E), then the combined effect is synergistic.
Weeds included Kochia (Bassia scoparia). However, the herbicidal effect afforded by the compounds, mixtures or compositions is not limited to these species. The analysis of synergism or antagonism between the mixtures or compositions was determined using Colby's equation.
Pots with 0.3 L of volume were filled with soil (SunGro Horticulture, Agawam, MA 01001) to grow one plant per pot in the greenhouse until the desired developmental stage. Environmental conditions inside the greenhouse were set up for 25° C., 75% relative humidity, and 12 h light day^−1 with natural sunlight or 500 […] PAR for cloudy days. […] During this time, the plants were tended, and their response to the individual treatments was evaluated. […]

CCOC(=O)COc1cc(-c2nn(C)c(OC(F)F)c2Cl)c(F)cc1Cl [Pyraflufen, pyraflufen-ethyl]
Herbicidal activity against Kochia (21 DAT) Found (Pyraflufen 0.2 g ai/ha alone, visual scale 0 to 100, mean of three replications): 32

CP(=O)(O)CCC(N)C(=O)O (racemic) [Glufosinate, (2RS)-2-amino-4-[hydroxy(methyl)phosphinoyl]butyric acid]
Herbicidal activity against Kochia (21 DAT) Found (Glufosinate 420 g ai/ha alone, visual scale 0 to 100 (100 = complete destruction), mean of three replications): 25
